Measured values as given in PubChem BioAssay AID248 (DTP/NCI, 2004).
“And” between values parts separate entries of the source, which are not always exact repeats. Equal entries are not always repeated. Toxic doses and inconclusive results are not listed. No stated cut-off is given here; in the data, active means T/C of 150% or more; inactive means T/C below 125%.

Tested on: L1210 leukemia ip in BDF1 mice, survival T/C
Experiment: NCI In Vivo Anticancer Drug Screen. Data for tumor model L1210 Leukemia (intraperitoneal) in B6D2F1 (BDF1) mice
Details: endpoint: mean survival time, higher = longer survival
How it was run: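 Mice bearing the transplanted tumor received compound or vehicle. Survival of the treated group was divided by that of the vehicle-treated control group to give the ratio.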

[1] = dose: 12.0 mg/kg/injection, schedule: Q04DX003 (ip), vehicle: Klucel (hydroxypropylcellulose) (HPC)
[2] = dose: 25.0 mg/kg/injection, schedule: Q01DX009 (ip), vehicle: Klucel (hydroxypropylcellulose) (HPC)
[3] = dose: 25.0 mg/kg/injection, schedule: Q04DX003 (ip), vehicle: Klucel (hydroxypropylcellulose) (HPC)
[4] = dose: 50.0 mg/kg/injection, schedule: Q01DX009 (ip), vehicle: Klucel (hydroxypropylcellulose) (HPC)
[5] = dose: 100.0 mg/kg/injection, schedule: Q01DX009 (ip), vehicle: Klucel (hydroxypropylcellulose) (HPC)
[6] = dose: 75.0 mg/kg/injection, schedule: Q01DX001 (ip), vehicle: saline
[7] = dose: 100.0 mg/kg/injection, schedule: Q01DX001 (ip), vehicle: carboxymethylcellulose (CMC)
[8] = dose: 200.0 mg/kg/injection, schedule: Q01DX001 (ip), vehicle: carboxymethylcellulose (CMC)
[9] = dose: 100.0 mg/kg/injection, schedule: Q04DX003 (ip), vehicle: Klucel (hydroxypropylcellulose) (HPC)
[10] = dose: 200.0 mg/kg/injection, schedule: Q01DX009 (ip), vehicle: Klucel (hydroxypropylcellulose) (HPC)
[11] = dose: 200.0 mg/kg/injection, schedule: Q04DX003 (ip), vehicle: Klucel (hydroxypropylcellulose) (HPC)

Measured: T/C

CC1C=C(Br)C(=O)c2ccccc2N1S(C)(=O)=O (stereo not drawn)
inactive: dose: 6.0 mg/kg/injection, schedule: Q04DX003 (ip), vehicle: Klucel (hydroxypropylcellulose) (HPC) 98 % of control | [1] 92 % of control | dose: 12.5 mg/kg/injection, schedule: Q01DX009 (ip), vehicle: Klucel (hydroxypropylcellulose) (HPC) 102 % of control | [2] 94 % of control | [3] 93 % of control and 96 % of control

C[N+](C)(C)CCOc1ccc(Cl)cc1
inactive: [1] 91 % of control | [2] 103 % of control | [3] 93 % of control | [4] 106 % of control | dose: 50.0 mg/kg/injection, schedule: Q04DX003 (ip), vehicle: Klucel (hydroxypropylcellulose) (HPC) 96 % of control | [5] 98 % of control

O=C(CC(O)(C(F)(F)F)C(F)(F)F)c1cc(Cl)ccc1Cl
inactive: dose: 100.0 mg/kg/injection, schedule: Q04DX003 (ip), vehicle: saline with Tween-80 112 % of control | dose: 200.0 mg/kg/injection, schedule: Q04DX003 (ip), vehicle: saline with Tween-80 105 % of control | dose: 400.0 mg/kg/injection, schedule: Q04DX003 (ip), vehicle: saline with Tween-80 103 % of control

O=C(O)c1cc(S(=O)(=O)Cl)cc(S(=O)(=O)Cl)c1
inactive: [6] 107 % of control

CC/C(=C/C(F)(F)C(F)(F)C(F)(F)F)[N+](=O)[O-]
inactive: [7] 112 % of control | [8] 103 % of control

c1ccc(C2CCCCO2)cc1 (stereo not drawn)
inactive: dose: 100.0 mg/kg/injection, schedule: Q01DX009 (ip), vehicle: saline with Tween-80 94 % of control | dose: 200.0 mg/kg/injection, schedule: Q01DX009 (ip), vehicle: saline with Tween-80 100 % of control | dose: 400.0 mg/kg/injection, schedule: Q01DX009 (ip), vehicle: saline with Tween-80 88 % of control

CCCCC(CCCC)(S(=O)(=O)CC)S(=O)(=O)CC
inactive: [7] 104 % of control | dose: 177.6 mg/kg/injection, schedule: Q01DX001 (ip), vehicle: carboxymethylcellulose (CMC) 94 % of control and 104 % of control | [8] 89 % of control | dose: 266.8 mg/kg/injection, schedule: Q01DX001 (ip), vehicle: carboxymethylcellulose (CMC) 98 % of control and 88 % of control | dose: 600.0 mg/kg/injection, schedule: Q01DX001 (ip), vehicle: carboxymethylcellulose (CMC) 98 % of control and 92 % of control

CC1CC(=O)NC(N)=N1 (stereo not drawn)
inactive: dose: 100.0 mg/kg/injection, schedule: Q01DX Z (ip), vehicle: saline 110 % of control | dose: 200.0 mg/kg/injection, schedule: Q01DX Z (ip), vehicle: saline 92 % of control

Nc1ncnc(N)c1NC(=O)c1cc(Cl)c(OCc2ccccc2)c(Cl)c1
inactive: dose: 100.0 mg/kg/injection, schedule: Q01DX001 (ip), vehicle: saline with Tween-80 91 % of control | dose: 200.0 mg/kg/injection, schedule: Q01DX001 (ip), vehicle: saline with Tween-80 96 % of control | dose: 400.0 mg/kg/injection, schedule: Q01DX001 (ip), vehicle: saline with Tween-80 96 % of control

O=C(Nc1cc(C2=NCCN2)cc(C2=NCCN2)c1)Nc1cc(C2=NCCN2)cc(C2=NCCN2)c1
inactive: dose: 0.75 mg/kg/injection, schedule: Q01DX Z (ip), vehicle: carboxymethylcellulose (CMC) 101 % of control | dose: 1.5 mg/kg/injection, schedule: Q01DX Z (ip), vehicle: carboxymethylcellulose (CMC) 98 % of control | dose: 3.0 mg/kg/injection, schedule: Q01DX Z (ip), vehicle: carboxymethylcellulose (CMC) 95 % of control | dose: 6.0 mg/kg/injection, schedule: Q01DX Z (ip), vehicle: carboxymethylcellulose (CMC) 101 % of control

CCOC(=O)c1ccccc1NC(c1ccccc1)c1ccc2cccnc2c1O (stereo not drawn)
inactive: dose: 100.0 mg/kg/injection, schedule: Q01DX001 (ip), vehicle: saline 101 % of control | dose: 200.0 mg/kg/injection, schedule: Q01DX001 (ip), vehicle: saline 97 % of control | dose: 400.0 mg/kg/injection, schedule: Q01DX001 (ip), vehicle: saline 91 % of control

ClC1(c2ccccc2)C2CCCCC21 (stereo not drawn)
inactive: [6] 100 % of control | dose: 150.0 mg/kg/injection, schedule: Q01DX001 (ip), vehicle: saline 100 % of control

CCN(C)c1cc2c3c(c1)CCCN3CCC2
inactive: dose: 5.0 mg/kg/injection, schedule: Q01DX009 (ip), vehicle: saline 103 % of control

CCN(CC)CCOc1cc(C)ccc1C
inactive: dose: 25.0 mg/kg/injection, schedule: Q01DX009 (ip), vehicle: saline 98 % of control | dose: 50.0 mg/kg/injection, schedule: Q01DX009 (ip), vehicle: saline 93 % of control | dose: 50.0 mg/kg/injection, schedule: Q04DX003 (ip), vehicle: saline 100 % of control | dose: 100.0 mg/kg/injection, schedule: Q01DX009 (ip), vehicle: saline 95 % of control | dose: 100.0 mg/kg/injection, schedule: Q04DX003 (ip), vehicle: saline 98 % of control

CCCCc1cc([N+](=O)[O-])cc([N+](=O)[O-])c1OCN1C(=O)C2C3CCC(O3)C2C1=O (stereo not drawn)
inactive: dose: 100.0 mg/kg/injection, schedule: Q04DX002 (ip), vehicle: Klucel (hydroxypropylcellulose) (HPC) 113 % of control | dose: 200.0 mg/kg/injection, schedule: Q04DX002 (ip), vehicle: Klucel (hydroxypropylcellulose) (HPC) 98 % of control | dose: 400.0 mg/kg/injection, schedule: Q04DX002 (ip), vehicle: Klucel (hydroxypropylcellulose) (HPC) 106 % of control

OCCNC1c2ccccc2-c2ccccc21
inactive: [4] 100 % of control | [5] 118 % of control | [9] 102 % of control | [10] 99 % of control | [11] 107 % of control

CN(C=O)COCN(C)C=O
inactive: dose: 100.0 mg/kg/injection, schedule: Q01DX001 (ip), vehicle: other 98 % of control | dose: 100.0 mg/kg/injection, schedule: Q04DX003 (ip), vehicle: other 98 % of control | dose: 200.0 mg/kg/injection, schedule: Q01DX001 (ip), vehicle: other 97 % of control | dose: 200.0 mg/kg/injection, schedule: Q04DX003 (ip), vehicle: other 102 % of control | dose: 400.0 mg/kg/injection, schedule: Q01DX001 (ip), vehicle: other 97 % of control | dose: 400.0 mg/kg/injection, schedule: Q04DX003 (ip), vehicle: other 104 % of control

CC12CCCCC1SC(F)(F)C2(F)F (stereo not drawn)
inactive: dose: 12.5 mg/kg/injection, schedule: Q01DX009 (ip), vehicle: saline with Tween-80 95 % of control | dose: 25.0 mg/kg/injection, schedule: Q01DX009 (ip), vehicle: saline with Tween-80 98 % of control

CCOc1ccc(NC(C)=O)cc1
inactive: [9] 96 % of control | [11] 104 % of control | dose: 400.0 mg/kg/injection, schedule: Q04DX003 (ip), vehicle: Klucel (hydroxypropylcellulose) (HPC) 115 % of control

CNC1C(c2ccc(C)cc2)=NN(c2ccccc2)C1c1ccccc1 (stereo not drawn)
inactive: dose: 100.0 mg/kg/injection, schedule: Q01DX001 (ip), vehicle: saline sonified 95 % of control | dose: 200.0 mg/kg/injection, schedule: Q01DX001 (ip), vehicle: saline sonified 95 % of control | dose: 400.0 mg/kg/injection, schedule: Q01DX001 (ip), vehicle: saline sonified 89 % of control

CC(C(O)c1ccc(Br)cc1)C(O)(C(F)(F)F)C(F)(F)F (stereo not drawn)
inactive: dose: 100.0 mg/kg/injection, schedule: Q01DX009 (ip), vehicle: other 111 % of control | dose: 200.0 mg/kg/injection, schedule: Q01DX009 (ip), vehicle: other 97 % of control | dose: 400.0 mg/kg/injection, schedule: Q01DX009 (ip), vehicle: other 103 % of control

O=C(N/N=C/c1cccnc1)c1cccc([N+](=O)[O-])c1
inactive: [5] 89 % of control | [10] 95 % of control | dose: 400.0 mg/kg/injection, schedule: Q01DX009 (ip), vehicle: Klucel (hydroxypropylcellulose) (HPC) 101 % of control
